Experimental data: patent US6359009B1, “Substituted anilide insecticidal agents” (BASF Aktiengesellschaft, priority 1998, dated 2002)
Structures can show the parent of a compound that is named as a salt.

How the values were obtained:
[1] = test system: Diabrotica undecimrunctata howardi, 3rd instar southern corn rootworm; test: Evaluation against 3rd instar southern corn rootworm, treated talc/soil jar test, mortality after 5 days; format: in vivo, Diabrotica undecimpunctata howardi; details: mortality rating 0-9 after 5 days in soil
Procedure: (§1) Test solutions are prepared by dissolving the test compound in a 35% acetone in water mixture to give a concentration of 10,000 ppm. Subsequent dilutions are made with water as needed.
Diabrotica undecimrunctata howardi, 3rd instar southern corn rootworm
(§2) One cc of fine talc is placed in a 30 mL wide-mouth screw-top glass jar. One mL of the appropriate acetone test solution is pipetted onto the talc so as to provide 1.25 mg, 0.25 mg or 0.025 mg of active ingredient per jar. The jars are set under a gentle air flow until the acetone is evaporated. The dried talc is loosened, 1 cc of millet seed is added to serve as food for the insects and 25 mL of moist soil is added to each jar. The jar is capped and the contents thoroughly mixed mechanically. Following this, ten 3rd instar rootworms are added to each jar and the jars are loosely capped to allow air exchange for the larvae. The treatments are held for 5 days when mortality counts are made. Missing larvae are presumed dead, since they decompose rapidly and can not be found.

[2] = test system: Diabrotica virgifera virgifera Leconte, 3rd instar western corn rootworm; test: Evaluation against 3rd instar western corn rootworm, treated talc/soil jar test, mortality after 5 days; format: in vivo; details: mortality rating 0-9 after 5 days in soil
Procedure: as §1
Diabrotica virgifera virgifera Leconte, 3rd instar western corn rootworm
as §2

CC(C)C(=O)C(C)(C)C(=O)Nc1ccc(C(F)(F)F)cc1 [Compound 1, α,α,α-Trifluoro-2,2,4-trimethyl-3-oxo-p-valerotoluidide]
Southern Corn Rootworm (1 ppm) rating [1]: 9.0 | Southern Corn Rootworm (10 ppm) rating [1]: 9.0 | Southern Corn Rootworm (50 ppm) rating [1]: 9.0

CC(C)C(=O)C(C)(C)C(=O)N(C)c1ccc(Cl)cc1 [Compound 2, 4′-Chloro-N,2,2,4-tetramethyl-3-oxo-valeranilide]
Southern Corn Rootworm (1 ppm) rating [1]: 0.0 | Southern Corn Rootworm (10 ppm) rating [1]: 0.0 | Southern Corn Rootworm (50 ppm) rating [1]: 3.5

CC(C)C(O)C(C)(C)C(=O)Nc1ccc(Cl)cc1 (stereo not drawn) [Compound 3, 4′-chloro-3-hydroxy-2,2,4-trimethylvaleranilide]
Southern Corn Rootworm (1 ppm) rating [1]: 0.0 | Southern Corn Rootworm (10 ppm) rating [1]: 4.0 | Southern Corn Rootworm (50 ppm) rating [1]: 8.0

CC(C)C(O)C(C)(C)C(=O)Nc1ccc(C(F)(F)F)cc1 (stereo not drawn) [Compound 4, α,α,α-Trifluoro-3-hydroxy-2,2,4-trimethyl-p-valerotoluidide]
Southern Corn Rootworm (1 ppm) rating [1]: 0.0 | Southern Corn Rootworm (10 ppm) rating [1]: 0.0 | Southern Corn Rootworm (50 ppm) rating [1]: 9.0

CC(C)SC(C)(C)C(=O)Nc1ccc(C(F)(F)F)cc1 [Compound 5, α,α,α-Trifluoro-2-(isopropylthio)-2-methyl-p-propionotoluidide]
Southern Corn Rootworm (1 ppm) rating [1]: 0.0 | Southern Corn Rootworm (10 ppm) rating [1]: 0.0 | Southern Corn Rootworm (50 ppm) rating [1]: 9.0

CCOCN(C(=O)C(C)(C)C(=O)C(C)C)c1ccc(C(F)(F)F)cc1 [Compound 15, N-(Ethoxymethyl)-α,α,α-trifluoro-2,2,4-trimethyl-3-oxo-p-valerotoluidide]
Western Corn Rootworm (1 ppm) rating [2]: 8.0 | Western Corn Rootworm (10 ppm) rating [2]: 9.0 | Western Corn Rootworm (50 ppm) rating [2]: 9.0

COC(C(C)C)C(C)(C)C(=O)Nc1ccc(C(F)(F)F)cc1 (stereo not drawn) [Compound 16, α,α,α-Trifluoro-3-methoxy-2,2,4-trimethyl-p-valerotoluidide]
Western Corn Rootworm (1 ppm) rating [2]: 0.0 | Western Corn Rootworm (10 ppm) rating [2]: 9.0 | Western Corn Rootworm (50 ppm) rating [2]: 9.0

CCOCOC(C(C)C)C(C)(C)C(=O)Nc1ccc(C(F)(F)F)cc1 (stereo not drawn) [Compound 17, 3-(Ethoxymethoxy)-α,α,α-trifluoro-2,2,4-trimethyl-p-valerotoluidide]
Western Corn Rootworm (1 ppm) rating [2]: 1.0 | Western Corn Rootworm (10 ppm) rating [2]: 9.0 | Western Corn Rootworm (50 ppm) rating [2]: 9.0

CC(C)C(OS(C)(=O)=O)C(C)(C)C(=O)Nc1ccc(C(F)(F)F)cc1 (stereo not drawn) [Compound 18, α,α,α-Trifluoro-3-hydroxy-2,2,4-trimethyl-p-valerotoluidide, methanesulfonate (ester)]
Western Corn Rootworm (1 ppm) rating [2]: 0.0 | Western Corn Rootworm (10 ppm) rating [2]: 3.0 | Western Corn Rootworm (50 ppm) rating [2]: 9.0

C#CCOC(C(C)C)C(C)(C)C(=O)Nc1ccc(C(F)(F)F)cc1 (stereo not drawn) [Compound 19, α,α,α-Trifluoro-2,2,4-trimethyl-3-(2-propynyloxy)-p-valerotoluidide]
Western Corn Rootworm (1 ppm) rating [2]: 0.0 | Western Corn Rootworm (10 ppm) rating [2]: 9.0 | Western Corn Rootworm (50 ppm) rating [2]: 9.0

CC(C)C(OC(=O)CCl)C(C)(C)C(=O)Nc1ccc(C(F)(F)F)cc1 (stereo not drawn) [Compound 20, 3-Hydroxy-α,α,α-trifluoro-2,2,4-trimethyl-p-valerotoluidide, chloroacetate (ester)]
Western Corn Rootworm (1 ppm) rating [2]: 0.0 | Western Corn Rootworm (10 ppm) rating [2]: 5.0 | Western Corn Rootworm (50 ppm) rating [2]: 9.0

CC(C)(C)C(=O)C(C)(C)C(=O)Nc1ccc(C(F)(F)F)cc1 [Compound 21, α,α,α-Trifluoro-2,2,4,4-tetramethyl-3-oxo-p-valerotoluidide]
Western Corn Rootworm (1 ppm) rating [2]: 0.0 | Western Corn Rootworm (10 ppm) rating [2]: 9.0 | Western Corn Rootworm (50 ppm) rating [2]: 9.0

C=CCOC(C(C)C)C(C)(C)C(=O)Nc1ccc(C(F)(F)F)cc1 (stereo not drawn) [Compound 22, 3-(Allyloxy)-α,α,α-trifluoro-2,2,4-trimethyl-p-valerotoluidide]
Western Corn Rootworm (1 ppm) rating [2]: 0.0 | Western Corn Rootworm (10 ppm) rating [2]: 9.0 | Western Corn Rootworm (50 ppm) rating [2]: 9.0

CC(C)OC(C(C)C)C(C)(C)C(=O)Nc1ccc(C(F)(F)F)cc1 (stereo not drawn) [Compound 23, α,α,α-Trifluoro-3-(isopropoxy)-2,2,4-trimethyl-p-valerotoluidide]
Western Corn Rootworm (1 ppm) rating [2]: 0.0 | Western Corn Rootworm (10 ppm) rating [2]: 9.0 | Western Corn Rootworm (50 ppm) rating [2]: 9.0

CCOC(C(C)C)C(C)(C)C(=O)Nc1ccc(C(F)(F)F)cc1 (stereo not drawn) [Compound 24, 3-Ethoxy-α,α,α-trifluoro-2,2,4-trimethyl-p-valerotoluidide]
Western Corn Rootworm (1 ppm) rating [2]: 0.0 | Western Corn Rootworm (10 ppm) rating [2]: 9.0 | Western Corn Rootworm (50 ppm) rating [2]: 9.0

CC(C)C(=O)C1(C(=O)Nc2ccc(C(F)(F)F)cc2)CC1 [Compound 25, α,α,α-Trifluoro-1-isobutyrylcyclopropanecarboxy-p-toluidide]
Western Corn Rootworm (1 ppm) rating [2]: 0.0 | Western Corn Rootworm (10 ppm) rating [2]: 0.0 | Western Corn Rootworm (50 ppm) rating [2]: 7.0

CC(C)C(OC1CCCC1)C(C)(C)C(=O)Nc1ccc(C(F)(F)F)cc1 (stereo not drawn) [Compound 26, 3-(Cyclopentyloxy)-α,α,α-trifluoro-2,2,4-trimethyl-p-valerotoluidide]
Western Corn Rootworm (1 ppm) rating [2]: 0.0 | Western Corn Rootworm (10 ppm) rating [2]: 0.0 | Western Corn Rootworm (50 ppm) rating [2]: 8.0

CCCCCCOC(C(C)C)C(C)(C)C(=O)Nc1ccc(C(F)(F)F)cc1 (stereo not drawn) [Compound 27, α,α,α-Trifluoro-3-(hexyloxy)-2,2,4-trimethyl-p-valerotoluidide]
Western Corn Rootworm (1 ppm) rating [2]: 0.0 | Western Corn Rootworm (10 ppm) rating [2]: 0.0 | Western Corn Rootworm (50 ppm) rating [2]: 9.0

COC(C(C)C)C(C)(C)C(=O)Nc1ccc(Cl)cc1 (stereo not drawn) [Compound 28, 4′-Chloro-3-methoxy-2,2,4-trimethylvaleranilide]
Western Corn Rootworm (1 ppm) rating [2]: 0.0 | Western Corn Rootworm (10 ppm) rating [2]: 5.0 | Western Corn Rootworm (50 ppm) rating [2]: 9.0

CC(C)C(=O)C(C)C(=O)Nc1ccc(C(F)(F)F)cc1 (stereo not drawn) [Compound 29, α,α,α-Trifluoro-2,4-dimethyl-3-oxo-p-valerotoluidide]
Western Corn Rootworm (1 ppm) rating [2]: 0.0 | Western Corn Rootworm (10 ppm) rating [2]: 0.0 | Western Corn Rootworm (50 ppm) rating [2]: 8.5

CC(C)OC(C)(C)C(=O)Nc1ccc(C(F)(F)F)cc1 [Compound 30, α,α,α-Trifluoro-2-isopropoxy-2-methyl-p-propionotoluidide]
Western Corn Rootworm (1 ppm) rating [2]: 0.0 | Western Corn Rootworm (10 ppm) rating [2]: 9.0 | Western Corn Rootworm (50 ppm) rating [2]: 9.0

CC(C)C(=O)C(C)(Cl)C(=O)Nc1ccc(C(F)(F)F)cc1 (stereo not drawn) [Compound 31]
Western Corn Rootworm (1 ppm) rating [2]: 0.0 | Western Corn Rootworm (10 ppm) rating [2]: 0.0 | Western Corn Rootworm (50 ppm) rating [2]: 4.0

CC(C)CC(C)C(=O)Nc1ccc(C(F)(F)F)c(OC(F)F)c1 (stereo not drawn) [Compound 32, 3-(Difluoromethoxy)-α,α,α-trifluoro-2,4-dimethyl-p-valerotoiuidide]
Western Corn Rootworm (1 ppm) rating [2]: 0.0 | Western Corn Rootworm (10 ppm) rating [2]: 4.0 | Western Corn Rootworm (50 ppm) rating [2]: 4.0

CC(C)C(OC=O)C(C)(C)C(=O)Nc1ccc(C(F)(F)F)cc1 (stereo not drawn) [Compound 33, α,α,α-Trifluoro-3-hydroxy-2,2,4-trimethyl-p-valerotoiuidide, formate (ester)]
Western Corn Rootworm (1 ppm) rating [2]: 0.0 | Western Corn Rootworm (10 ppm) rating [2]: 5.0 | Western Corn Rootworm (50 ppm) rating [2]: 9.0

CC(C)(C)OC(C)(C)C(=O)Nc1ccc(C(F)(F)F)cc1 [Compound 34, 2-tert-Butoxy-α,α,α-trifluoro-2-methyl-p-propionotoluidide]
Western Corn Rootworm (1 ppm) rating [2]: 2.0 | Western Corn Rootworm (10 ppm) rating [2]: 9.0 | Western Corn Rootworm (50 ppm) rating [2]: 9.0

CCOC(C)(C)C(=O)Nc1ccc(C(F)(F)F)cc1 [Compound 35, 2-Ethoxy-α,α,α-trifluoro-2-methyl-p-propionotoluidide]
Western Corn Rootworm (1 ppm) rating [2]: 0.0 | Western Corn Rootworm (10 ppm) rating [2]: 3.0 | Western Corn Rootworm (50 ppm) rating [2]: 9.0

CC(C)C(=O)C(C)(C)C(=O)N(C)c1ccc(C(F)(F)F)cc1 [Compound 36, α,α,α-Trifluoro-N,2,2,4-tetramethyl-3-oxo-p-valerotoluidide]
Western Corn Rootworm (1 ppm) rating [2]: 2.0 | Western Corn Rootworm (10 ppm) rating [2]: 9.0 | Western Corn Rootworm (50 ppm) rating [2]: 9.0
